Values of other authors in patent US20230398128A1, “PREFERRED ORAL TESTOSTERONE UNDECANOATE THERAPY TO ACHIEVE TESTOSTERONE REPLACEMENT TREATMENT” (Marius Pharmaceuticals LLC, priority 2021, published 2023).

Conditions: for increase in ambulatory SBP: previous testosterone studies

| Compound | increase in ambulatory SBP | increase in ambulatory systolic BP (previously reported study, subjects receiving antihypertensive medication) |
| --- | --- | --- |
| CCCCCCC(=O)O[C@H]1CC[C@H]2[C@@H]3CCC4=CC(=O)CC[C@]4(C)[C@H]3CC[C@]12C [testosterone enanthate] | 3.7 mmHg |  |
| CCCCCCCCCCC(=O)O[C@H]1CC[C@H]2[C@@H]3CCC4=CC(=O)CC[C@]4(C)[C@H]3CC[C@]12C [testosterone undecanoate (oral), testosterone undecanoate] | 4.9 mmHg | 5.5 mmHg |
